Results on six compounds are retold here after US5955421A, “Peptides containing D-2-alkyl-Tryptophan” (priority 1990, dated 1999).

Series [1] concerns GH release. The experiment in a line: Released GH in ten day-rats, s.c. (Table 9). In kind it is in vivo. The note with it: 15 minutes. As to the method:
In vivo activity of these compounds was determined in ten day-rats, which were subcutaneously injected (s.c.) with a dose of 300 μg/kg or with different doses in dose-response studies, according to the procedure as described in Deghenghi et. al, Life Sciences 54, 1321 (1994). The released GH was measured 15 minutes following compound administration.

For series [2], the system named is pituitary cell monolayers. The experiment in a line: GH secretion of pituitary cell monolayers incubated with peptides. The note with it: 2 hours incubation. In kind it is cell-based, rats. On the procedure: (§1) Male Sprague Dawley rats (Charles River, Calco, Italy) of 2-3 months of age were used. Rats were housed at 22 +2° C., with lighting cycle of 14 h light: 10 h dark (lights on from 06.00 to 20.00 h), at least 10 days before starting the experiments. A standard dry diet and water were available ad libitum.
Pituitary tissue used for cell dissociation included only the anterior lobe. Briefly, pituitary glands were collected in sterile F-10 medium and after cutting into small fragments incubated twice (30 minutes each) at 37° C. in F-10 medium containing 6% fetal calf serum and collagenase (2.5 mg/ml) (Boehringer, Mannheim GmbH, Germany). Fragments were then washed in Dulbecco's PBS, Ca^2 + and Mg^2 + free medium and mechanically dissociated. Single cell suspension was planted onto 24-well (2×10^5 cells/well) culture plates. The cells were incubated in F-10 medium supplemented with 10% horse serum, 4% fetal calf serum and gentamycin (25 μg/ml), in a humidified atmosphere of 5% CO2 and 95% air at 37° C.
After 3 days, the medium was removed and the cells washed twice with serum free F-10, then incubated with 1 ml of F-10 containing 0.1% BSA only, or with added various concentrations of synthetic peptides.
After incubation for 2 h at 37° C., media were collected and stored frozen at -20° C. until assayed for measurement of GH content.
(§2) Medium and plasma GH was measured by radioimmunoassay using materials supplied by the NIADDK Bethesda, Md. Values were expressed in term of NIASSK-rat-GH-RP-2 standard (potency 2 IU/ml), as ng/ml of medium or plasma.
(§3) The minimum detectable value of rat was 1.0 ng/ml; intra-assay variability was 6%. To avoid inter-assay variation, samples from each experiment were assayed simultaneously.

Series [3] deals with GH release. The experiment in a line: Plasma GH after i.v. administration in male rats anesthetized with ketamine and xilazine. In kind it is in vivo. The note with it: 0 min (before injection). On the procedure: as §1
(§4) Between 09.00-10.00 h rats were anesthetized with ketamine (58 mg/kg, Inoketam, VIRBAC, Milano) and xilazine (12 mg/kg, Rompun, Bayer, Milano). Thirty minutes later, a blood sample ([…]) was withdrawn from the exposed jugular vein, peptides were injected intravenously or subcutaneously, and further blood samples were collected 10, 20 and 30 minutes later.
as §2, §3

For series [4], the system named is GH release. The experiment in a line: Plasma GH after s.c. administration in male rats anesthetized with ketamine and xilazine. The note with it: 0 min (before injection). In kind it is in vivo. On the procedure: as §1, §4, §2, §3
Series [5] has as its system rat. The experiment in a line: Acute cardiovascular toxicity in the rat, single i.v. dose, mortality. In kind it is in vivo. The note with it: observed up to 4 hours. As to the method:
These two peptides were also tested for acute cardiovascular toxicity in the rat.
Dosages were calculated on the basis of the declared peptide content in each product, as specified below:
A single dose of HEXARELIN or GHRP-6 was administered to rats in different calendar dates in such a way that each group/dose should be treated in two subsequent days.
For each compound, appropriate amounts of solutions in 0.9% NaCl for injection were prepared just before treatment at the suitable concentrations. The solutions were sterilized by filtration (Millipore filter, pore size 0.22 μm). Owing to the type of the study (acute study) in which formulates were administered just after preparation, stability checks were not performed. Concentration checks were also not performed. The volume of solution injected was maintained constant at 1 ml/Kg.
The intravenous injections were done as a single dose in one vein of the tail with an appropriately gauged sterile, disposable, plastic syringe. The injection rate was about 0.1 ml/sec.
Periodical observations were made up to 4 hours after treatment. Abnormality and mortality were recorded. Body weight was recorded once during pre-trial and on the administration day to calculate the volumes to be injected.

The test system of series [6] is GH release. Put plainly: GH response in conscious, freely-moving rats after antiserum pretreatment, i.v. 25 μg/kg. In kind it is in vivo. The note with it: 25 μg/kg i.v. On the procedure: Sixty male rats were prepared with indwelling venous catheters under ether anesthesia three days before experimentation. On the day of experimentation, all animals were given an iv heparin injection (100 IU; 0630 h). At 0700 h, animals were treated with 0.5 ml of either normal serum (control-as), somatostatin antiserum (somatostatin-as; 0.25 ml+0.25 ml saline), growth hormone-releasing hormone antiserum (GHRH-as; 0.25 ml+0.25 ml saline), or both somatostatin antiserum and growth hormone-releasing hormone antiserum (0.25 ml somatostatin-as+0.25 ml GHRH-as). Blood sampling began 60 minutes after antiserum pretreatment, with blood samples collected every 20 minutes for three hours. After the 180 minute sample (1100 h), animals were treated iv with 25 μg/kg of either Hexarelin or GHRP-6. Blood samples were then collected at 5, 10, 15, 20, 30, 40, and 60 minutes after peptide treatment. All samples were centrifuged immediately and the plasma frozen until assayed. The peak GH response to Hexarelin and GHRP-6 as well as the area under the response curves (AUCs) for the thirty minutes following peptide injection were calculated. Data were subjected to repeated measures analysis of variance and are expressed as mean±SEM.

Series [7] relates to adenylcyclase. The experiment in a line: Adenylcyclase activity in anterior pituitary gland cells. In kind it is cell-based. The note with it: anterior pituitary gland cells from rats weighing 150 g.
Series [8] is described as follows: Stability of D-Trp and D-2-methyl-Trp in 1% solutions (HPLC peak area). In kind it is physicochemical. The note with it: pH 2.2 citrate buffer, dark, helium (FIG. 1), pH 5.4 acetate buffer, oxygen, constant light (FIG. 2).
The mark [9] stands for this setting: 300 μg/kg s.c., GH control 10 to 31 ng/ml depending on experiment.

Square brackets hold non-standard residues; d marks the D form. Peptide text beside a SMILES is read from it. Some results are limits rather than exact numbers.

For “4-(aminomethyl)cyclohexanecarbonyl-D-Mrp-D-Trp-Phe-Lys-NH^2”, the GH released in series [1] (setting [9]) stood at 111.8 ± 24.6 ng/mL.
For the compound `C[C@H](NC(=O)[C@@H](Cc1c[nH]c2ccccc12)NC(=O)[C@@H](N)Cc1c[nH]cn1)C(=O)N[C@@H](Cc1c[nH]c2ccccc12)C(=O)N[C@H](Cc1ccccc1)C(=O)N[C@@H](CCCCN)C(N)=O` [GHRP-6, His-D-Trp-Ala-Trp-D-Phe-Lys-NH2] (H-H[dW]AW[dF]K-NH2), the figures for the GH-releasing activity in series [2] (10^-6 M), in series [2] (10^-7 M) and in series [2] (10^-8 M) were 510.0 ± 12.0 ng/well, 526.5 ± 19.0 ng/well and 544.2 ± 23.9 ng/well, respectively. Moreover, the “plasma GH” value stood at 30.2 ± 7.8 ng/mL in series [3] (i.v. 150 μg/kg); 21.9 ± 4.4 ng/mL in series [3] (i.v. 300 μg/kg); 21.2 ± 6.1 ng/mL in series [3] (i.v. 600 μg/kg); 20.0 ± 5.0 ng/mL in series [4] (s.c. 150 μg/kg); 20.0 ± 6.0 ng/mL in series [4] (s.c. 300 μg/kg); 18.0 ± 4.0 ng/mL in series [4] (s.c. 600 μg/kg). Also, the “Dead rats/Total No of rats per group” value is recorded as 0/6 in series [5] (2.5 mg/kg i.v. single dose), 1/6 in series [5] (5.0 mg/kg i.v. single dose) and 2/6 in series [5] (7.5 mg/kg i.v. single dose). Also, in series [6] (main peptide effect pooled over antiserum pretreatments), the “Mean GH” value came to 131 ± 13 ng/mL. Moreover, the “Peak GH” value in series [6] (pooled over antiserum pretreatments) amounted to 293 ± 41 ng/mL. Also, in series [6] (thirty minutes following injection, pooled over antiserum pretreatments), the “GH AUC” value is on record as 4220 ± 665 ng/ml/30 min. In addition, the “adenylcyclase activity, increase compared with the baseline” value in series [7] is “inactive”.
In the case of `Cc1[nH]c2ccccc2c1C[C@@H](N)C(=O)O` [substituted Trp, D-2-Methyl-Tryptophan], in series [8], the “time stable in solution (HPLC peak area)” value is at least 60 days.
Still for that read-out and setting: to `N[C@H](Cc1c[nH]c2ccccc12)C(=O)O` [unsubstituted Trp, D-Tryptophan, reference compound] belongs “about 20 days”.
As usually defined, the EC50 is the concentration giving half of the maximal effect. A higher EC50 goes with weaker potency. Take “D-Ala-D-Mrp-Ala-Trp-D-Phe-Lys-NH2 [D-Ala-D-Mrp--Ala--Trp-D-Phe--Lys--NH2]”: the GH released in series [1] (40 μg/kg s.c., GH control 34 ± 1) stood at 200 ± 20 ng/mL. Besides, in series [1] (320 μg/kg s.c., GH control 34 ± 1), the GH released is 251 ± 32 ng/mL. For the same compound, in series [7], the half-maximal effective concentration (EC50) was 0.23 nM and the “adenylcyclase activity, increase compared with the baseline” value amounted to 30%.
Turning to “imidazolylacetyl-D-Mrp-Ala-Trp-D-Phe-Lys-NH2”, in series [1] (setting [9]), the GH released stood at 159 ± 27 ng/mL.
